Source: patent US20260153494A1 (AGRICUL TURAL UNIVERSITY OF ATHENS, priority 2023, published 2026)
“And” between values parts separate entries of the source, which are not always exact repeats. Equal values may be shown once.

Assays:
[1] = system: Immobilized FGGsh155:CB[8] hexamer (GSTF mutant sh155, FGG-tagged, SEQ ID NO: 2, with cucurbit[8]uril 1:1, on glutaraldehyde-crosslinked chitosan); assay: Butachlor inhibition (IC50) of immobilized FGGsh155:CB[8]; assay type: biochemical; settings: immobilized on chitosan carrier vs free enzyme
Experimental: FIG. 21 (A-B): Dose-response inhibition curves of FGGsh155:CB[8] due to the herbicide butachlor for the determination of IC50 value. FIG. 21A. before and FIG. 21B. after immobilization. The data represent the mean±SD (N=3).
(§1) The half maximal inhibitory concentration (IC50), namely the inhibitor concentration that leads to 50% inhibition of the enzyme activity of FGGsh155:CB[8], was determined for constant substrate concentrations and varying butachlor concentrations. The utilised substrate concentrations were equal to the kinetic constant value of S0.5 for CDNB and 2.5 times the CDNB concentration for GSH. The correlation between the butachlor concentration from 0 to 600 nM (0 to 0.6 μM) and the remaining activity (%) of the immobilized enzyme was linear, thus standard curves for known herbicide concentrations were developed. The methodology was tested for drinking water samples derived from the Athens water supply network, as well as commercial mineral water (see Example 11). The results were analysed with the Graphpad Prism software.

[2] = system: sh155 dimer (phi class glutathione S-transferase GSTF mutant derived by DNA shuffling, SEQ ID NO: 2); assay: Kinetic inhibition analysis with butachlor, dimer sh155; assay type: biochemical; settings: constant GSH, variable CDNB
Source text: (§2) FIG. 22 (A-J): Kinetic inhibition analysis of the dimer enzyme sh155 (FIG. 22A, 22C, 22E, 22G, 22I) and the hexamer FGGsh155:CB[8] (FIGS. 22B, 22D, 22F, 22H, 22J). A. & B. Lineweaver-Burk plots for the inhibition of the enzymes by different concentrations of butachlor, at constant concentration of GSH and variable concentration of CDNB. C. & D. Secondary (derivative) graph. The slope values were derived from the Lineweaver-Burk graphs (A) & (B). The intersection point with the x axis corresponds to Ki. E. & F. Secondary (derivative) graph where the data are derived from the Lineweaver-Burk graphs (A) & (B). The intersection point with the x axis corresponds to K. G. & H. Lineweaver-Burk plots for the inhibition of the enzymes by different concentrations of butachlor, at constant concentration of CDNB and variable concentration of GSH. […]. Secondary (derivative) graph. The slope values were derived from the Lineweaver-Burk graphs […], and the intersection point with the x axis corresponds to Ki.
(§3) Kinetic analysis in presence of butachlor aimed to characterize of the type of inhibition, thus the binding site of the inhibitor, as well as to identify possible differences in kinetic behavior between the GST dimer form (sh155) and the hexamer FGGsh155:CB[8] that was used in the immobilization. […]

[3] = system: FGGsh155:CB[8] hexamer (FGG-tagged phi class glutathione S-transferase GSTF mutant sh155, SEQ ID NO: 2, with cucurbit[8]uril 1:1); assay: Kinetic inhibition analysis with butachlor, hexamer FGGsh155:CB[8]; assay type: biochemical; settings: constant GSH, variable CDNB
Source text: as §2, §3

FGGsh155:CB[8] = FGGsh155:CB[8] (Triticum aestivum, UniProt Z9G7Y6U750); assay: Inhibition of free FGGsh155:CB[8] by butachlor (IC50, kinetic inhibition analysis); assay type: biochemical
Experimental: as §1, with “The correlation between the butachlor concentration from 0 to 600 nM (0 to 0.6 μM) and the remaining activity (%) of the immobilized enzyme was linear, thus standard curves for known herbicide concentrations were developed.” left out
(§4) Kinetic analysis in presence of butachlor aimed to characterize of the type of inhibition, thus the binding site of the inhibitor, as well as to identify possible differences in kinetic behavior between the GST dimer form (sh155) and the hexamer FGGsh155:CB[8] that was used in the immobilization. […] In the mixed inhibition pattern all of the kinetic constants (Km, kcat) change, and the inhibitor is able to bind to both the free enzyme (Ki) and the enzyme-substrate complex (Ki′) with different affinities. […] This type of inhibition is a sub-case of the mixed inhibition pattern where Ki=Ki′, i.e. the velocity of the reaction is decreased without affecting the affinity with the substrate. In this inhibition type, the inhibitor and the substrate bind independently at different enzyme sites.

[4] = target: T1, immobilized FGGsh155:CB[8] (Triticum aestivum, UniProt Z9G7Y6U750); assay: Inhibition of immobilized FGGsh155:CB[8] by butachlor (IC50); assay type: biochemical; settings: after immobilization on the chitosan carrier
Experimental: as §1

sh155 = sh155 (Triticum aestivum, UniProt Z9G7Y6U750); assay: Kinetic inhibition analysis of dimer sh155 by butachlor; assay type: biochemical
Source text: as §4

[5] = target: T1, immobilized FGGsh155:CB[8]; assay: Determination of butachlor in spiked water samples with the immobilized enzyme biosensor
Experimental: as §1
The basis for the detection of the herbicide butachlor in water samples was the determination of inhibition induced in the immobilized enzyme form. […] The linear response of inhibition of the immobilized enzyme due to butachlor was described by the equation y=−101.3x+98.07, R^2=0.991 (FIG. 23A). This observation led to the development of a methodology for determination of butachlor in drinking water samples based on the detection of inhibition as determined by a standard reference curve. Accordingly, standard curves were generated for spiked, with known concentrations of butachlor, samples of drinking water from the Athens' supply network (y=−81.84x+98.81, R^2=0.997) and bottled mineral water (y=−72.69x+99.46, R^2=0.995) (FIG. 23B). The detection range of butachlor with this methodology was determined up to 180 μg/L (600 nM) in water samples, with the acceptable amount of a pesticide in surface water at 1.0 μg/L and in drinking water at 0.1 μg/L (Council Directive 98/83/EC). The detection range up to 0.6 μM (180 μg/L) of the developed biosensor, with detection limit at approximately 31 μg/L for butachlor, achieves comparatively high sensitivity and selectivity.
The methodology was evaluated with recovery experiments of spiked drinking water samples, with known but random concentrations of butachlor within the range of the standard curve. […] The correlation between the added and found butachlor tested concentrations for network supply water (R^2 0.9993, p<0.0001) and mineral water (R^2 0.9987, p<0.0001) is depicted in FIG. 23C & 23D.

[6] = buffer; cited from earlier work
human lymphocytes = settings: cited from earlier work
[7] = towards CDNB (variable CDNB, constant GSH), binding to free enzyme
[8] = towards CDNB, binding to enzyme-substrate complex
[9] = towards GSH (variable GSH, constant CDNB)

For `CCCCOCN(C(=O)CCl)c1c(CC)cccc1CC` [Butachlor, 2-chloro-2,6-diethyl-N-butoxymethyl-acetanilide], the “increase in sensitivity for butachlor after immobilization (IC50 immobilized vs free enzyme)” value [1] was “ten-fold increase in sensitivity”, the “type of inhibition towards CDNB” value [2] was “mixed type inhibition with Ki<Ki′” and the “type of inhibition towards CDNB” value [3] was “mixed type inhibition with Ki<Ki′”.

For `CCCCOCN(C(=O)CCl)c1c(CC)cccc1CC` [butachlor, 2-chloro-2,6-diethyl-N-butoxymethyl-acetanilide], the “type of inhibition towards GSH” value (FGGsh155:CB[8]) was “non-competitive inhibition”, the “type of inhibition towards the CDNB substrate” value (FGGsh155:CB[8]) was “mixed type inhibition” and the IC50 (FGGsh155:CB[8]; free enzyme, before immobilization) was 5.14 ± 0.16 µM. It also gave a Ki (FGGsh155:CB[8]; [7]) of 4.42 µM, a Ki (FGGsh155:CB[8]; [8]) of 21.1 µM and a Ki (FGGsh155:CB[8]; [9]) of 13.2 µM. The IC50 [4] was 0.56 ± 0.02 µM, the “type of inhibition towards GSH” value (sh155) was “non-competitive inhibition” and the “type of inhibition towards the CDNB substrate” value (sh155) was “mixed type inhibition”. The Ki (sh155; [7]) was 5.92 µM, the Ki (sh155; [8]) was 22.6 µM and the Ki (sh155; [9]) was 13.3 µM. The Found butachlor ([5]; Athens water supply network, added 0.05 μM) was 0.046 ± 0.003 µM, the Found butachlor ([5]; Athens water supply network, added 0.2 μM) was 0.191 ± 0.001 µM and the Found butachlor ([5]; Athens water supply network, added 0.3 μM) was 0.308 ± 0.008 µM. For the same molecule, the Found butachlor ([5]; Athens water supply network, added 0.4 μM) was 0.416 ± 0.005 µM, the Found butachlor ([5]; Athens water supply network, added 0.6 μM) was 0.617 ± 0.003 µM and the Found butachlor ([5]; Bottled mineral water, added 0.1 μM) was 0.095 ± 0.005 µM. It also gave a Found butachlor ([5]; Bottled mineral water, added 0.2 μM) of 0.215 ± 0.005 µM, a Found butachlor ([5]; Bottled mineral water, added 0.3 μM) of 0.307 ± 0.005 µM and a Found butachlor ([5]; Bottled mineral water, added 0.4 μM) of 0.413 ± 0.012 µM. For the same molecule, the Found butachlor ([5]; Bottled mineral water, added 0.55 μM) was 0.56 ± 0.010 µM, the detection limit ([5]; developed biosensor) was “approximately 31 μg/L” and the detection range ([5]; water samples) was “up to 180 μg/L and ≤ 600 nM”. For the same molecule, the half-life [6] was “up to 2.5 days” and the “frequency of chromosomal abnormalities” value (human lymphocytes) was “dose-dependent increase in the frequency of chromosomal abnormalities”.
